“Also recorded” adds a separate entry of the source. Where two headings read alike, the source gives them in different places.
Key:
CL1-5 lung cancer cells = experiment: cells; assay type: cell-based, human; conditions: for IC50: Homo sapiens
Description: (§1) Apart from the traditional role in ATP production, ATP synthase may play critical roles in tumor cell metastases. Human lung adenocarcinoma cell lines CL1-1 and CL1-5 with different metastasis were obtained from the American Type Culture Collection (Manassas, Va.), and human normal lung cell line IMR-90 was obtained from Institute of Biomedical Sciences, Academia Sinica. The CL1-5 cell line is highly metastatic lung cancer cells, but the CL1-1 cell line is low metastatic lung cancer cells.
(§2) Human lung adenocarcinoma cell lines were maintained in DMEM at 37° C. with 5% CO2 (Gibco, Carlsbad, Calif., USA), 5% fetal bovine serum (Gibco), 50 units/mL penicillin, and 50 μg/mL streptomycin (Gibco). IMR-90 cells were culture in DMEM (Gibco), 0.01 mg/mL Insulin, 5 μg/mL Hydrocortisone.
(§3) As shown in FIG. 9 to FIG. 11, cell proliferation assays were in the presence of three F1-targeting H-ATP synthase inhibitors: aurovertin B, resveratol, and piceatannol. […] Thus, aurovertin B caused significant apotosis in CL1-1 and CL1-5 cells.

CL1-1 lung cancer cells = experiment: cells; assay type: cell-based, human; conditions: for IC50: Homo sapiens
Description: as §1, §2, §3

[1] = Viable cell number counting using trypan blue; assay type: cell-based; conditions: human; IMR-90 normal lung cells, same time points; read-out: cell viability rate
Description: as §1, §2, §3

[2] = test system: MDAMB231 breast cancer cell line; experiment: MTT assay, cell viability; assay type: cell-based; conditions: Homo sapiens, MDA-MB-231, MDAMB231, 48 hours
Description: as §2, with “breast cancer cell lines, MCF-7, MDA-MB231, T47D and human normal breast cell line MCF-10A, were obtained from the American Type Culture Collection (Manassas, Va.). Human breast cancer” for “lung adenocarcinoma”, “MCF-10A” for “IMR-90”
(§4) Cytotoxic effects on the growth and viability of cells were determined using MTT (3(4,5-dimethylthiazol-2-yl)-2,5-diphenyltetrazolium bromide, a tetrazole) assay. 10^4 cells/mL were plated in 96-well plates and allowed to attach for 24 hours. Cells were treated with […] of aurovertin B, resveratrol and piceatannol for 48 hours. At the end of the incubation period, MTT reagent (10 μL) was added to each 100 μL of culture. After incubation for 4 hr at 37° C., the formed water insoluble formazan dye was solubilized by adding 100 μL of DMSO to the culture wells. The plates were further incubated for 15 min at room temperature, and optical density (OD) of the wells was determined using ELISA microplate reader at a test wavelength of 570 nm. All experiments were performed in triplicates.

[3] = test system: T47D breast cancer cell line; experiment: MTT assay, cell viability; assay type: cell-based; conditions: Homo sapiens, 48 hours
Description: as §2, with “breast cancer cell lines, MCF-7, MDA-MB231, T47D and human normal breast cell line MCF-10A, were obtained from the American Type Culture Collection (Manassas, Va.). Human breast cancer” for “lung adenocarcinoma”, “MCF-10A” for “IMR-90”
as §4

MCF-7 cells [4] = experiment: Annexin V-FITC/PI analysis of apoptosis; assay type: cell-based, human; conditions: MCF-7, 0.05-10 μM, 48 hours
Description: Flow cytometric analysis was performed to identify and quantify the apoptotic cells by using Annexin V-FITC/PI (propidium iodide) apoptosis detection kit (Santa Cruz Biotechnology, Santa Cruz, Calif., USA). […] After incubation, floating and adherent cells were harvested. Cells were washed carefully with cold PBS at 4° C. Cell pellets were resuspended in […] of binding buffer. Annexin-V FITC (0.2 μg/100 μL) and PI (10 μg/mL) was added to the cells and left for incubation in the dark for 15 min at room temperature. All data were acquired by flow cytometry using a FACSCanto cytometer (Becton Dickinson, San Jose, Calif., USA). The flow cytometric analysis was performed using FCS Express 3.0 (DeNovo software).

[5] = MTT assay, cell viability; assay type: cell-based, human; conditions: human; MCF-10A normal breast cells, same time points; read-out: cell viability rate
Description: as §2, with “breast cancer cell lines, MCF-7, MDA-MB231, T47D and human normal breast cell line MCF-10A, were obtained from the American Type Culture Collection (Manassas, Va.). Human breast cancer” for “lung adenocarcinoma”, “MCF-10A” for “IMR-90”
as §4

[6] = test system: MCF-7 breast cancer cells; experiment: MTT assay, cell viability; assay type: cell-based, human; conditions: MCF-7, 48 hours
Description: as §2, with “breast cancer cell lines, MCF-7, MDA-MB231, T47D and human normal breast cell line MCF-10A, were obtained from the American Type Culture Collection (Manassas, Va.). Human breast cancer” for “lung adenocarcinoma”, “MCF-10A” for “IMR-90”
as §4

[7] = test system: normal breast cell line MCF-10A; experiment: MTT assay, cell viability; assay type: cell-based, human; conditions: MCF-10A, under these concentrations
Description: as §2, with “breast cancer cell lines, MCF-7, MDA-MB231, T47D and human normal breast cell line MCF-10A, were obtained from the American Type Culture Collection (Manassas, Va.). Human breast cancer” for “lung adenocarcinoma”, “MCF-10A” for “IMR-90”
as §4

MCF-7 cells [8] = experiment: DAPI staining of nuclear morphology; assay type: cell-based, human; conditions: MCF-7, 48 h, IC50 concentration
Description: After treatment for 48 h with DMSO (control) or aurovertin B (at their respective IC50 concentrations), cells were fixed in 4% paraformaldehyde for 15 min and stained with DAPI (2 μg/mL in PBS) for 15 min at 37° C. to detect apoptotic bodies (Sigma, St. Louis, Mo., USA). Results were determined by visual observation of nuclear morphology via fluorescence microscopy.

MCF-7 cells [9] = experiment: Cell cycle analysis by flow cytometry; assay type: cell-based, human; conditions: 48 hours (control 63.1%)
Description: For the determination of cell cycle phase distribution, 3×10^5 MCF-7 cells were first exposed to various concentrations of aurovertin B in DMEM with 10% FBS for 48 hr by flow cytometric analysis. The cells were trypsinized, collected and fixed in 70% cold ethanol (−20° C.) overnight. After washing twice with PBS, cells were resuspended in PBS. RNase A (1 mg/mL) and PI (10 μg/mL) were added to the fixed cells for 30 min. The DNA content of cells was then analyzed with a FACSCanto instrument (Becton Dickinson, San Jose, Calif., USA). The percentage of cells in different phases of the cell cycle was calculated by MultiCycle (DeNovo software, Ontario, Canada).

[10] = test system: HeLa cervical cancer cells; conditions: Acta Biochimica Polonica 2004; cited from earlier work

Structure (SMILES)	IC50 (CL1-5 lung cancer cells; CL1-5, highly metastatic lung cancer cells, read-out: IC50)	IC50 (CL1-1 lung cancer cells; CL-11, CL1-1, low metastatic lung cancer cells, read-out: IC50)	viability [1]	cell viability rate (CL1-5 lung cancer cells; CL1-5)	cell viability rate (CL1-1 lung cancer cells; CL1-1)	IC50 [2]	IC50 [3]	early and late apoptotic/necrotic cells (MCF-7 cells [4])	viability at 48 h [5]	IC50 ([6]; Homo sapiens, MCF7, 48 h)	IC50 [6]	cytotoxicity to normal cells [7]	morphological changes of the nuclei (MCF-7 cells [8])	IC50 (CL1-5 lung cancer cells; CL1-5, CL1-5, highly metastatic lung cancer cells)	IC50 (CL1-1 lung cancer cells; CL1-1)	percentage of cells in G0/G1 phase (MCF-7 cells [9]; MCF-7, 0.1 μM)	percentage of cells in G0/G1 phase (MCF-7 cells [9]; MCF-7, 1 μM)	percentage of cells in G0/G1 phase (MCF-7 cells [9]; MCF-7, 5 μM)	release of cytochrome c and apoptosis [10]
Oc1ccc(C=Cc2cc(O)cc(O)c2)cc1 [resveratrol]	~5 µM	10 µM	≤ 60%																
Oc1cc(O)cc(/C=C/c2ccc(O)c(O)c2)c1 [piceatannol]			60%	≥ 80%	≥ 80%														
CC[C@H]1OC2(C)C(OC(C)=O)[C@@]1(C)OC(/C=C/C=C/C=C/c1oc(=O)cc(OC)c1C)[C@@H]2O (stereo partly drawn) [aurovertin B]			≥ 60%			5.52 µM	0.89 µM	dose-dependent increase in both early and late apoptotic/necrotic cells	≥ 80%	0.1 µM	0.09 µM	no apparent cytotoxicity	condensation and shrinkage of nuclei	~0.5 µM	0.1 to 0.5 µM	66.5%	78.5%	81.2%	didn't affect the release of cytochrome c and apoptosis; also recorded: can't cause apotosis

From patent publication US20100190845A1, “METHOD OF TREATING CANCER USING ATP SYNTHASE INHIBITORS” (NATIONAL TAIWAN UNIVERSITY, priority 2009, published 2010)
